# Measured values reported in ChEMBL document CHEMBL3525914, “Induction of hepatic multidrug resistance-associated protein 3 by ethynylestradiol is independent of cholestasis and mediated by estrogen receptor” (Drug Metab Dispos, 2013).
# Experiments:
# [1] = tested on: Rattus norvegicus; test: Toxicity in Wistar rat assessed as bile flow per gm of liver at 5 mg/kg, sc administered as single dose after 5 hrs (reference value: 1.40 +/- 0.14 ul/min); assay type: organism-based; set-up: dose 5 mg/kg, route subcutaneous; settings: in vivo
# [2] = tested on: Rattus norvegicus; test: Toxicity in Wistar rat assessed as biliary excretion of total bile salts per gm of liver at 5 mg/kg, sc administered as single dose after 5 hrs (reference value: 50 +/- 6 nmol/min); assay type: organism-based; set-up: dose 5 mg/kg, route subcutaneous; settings: in vivo
# [3] = tested on: Rattus norvegicus; test: Toxicity in Wistar rat assessed as biliary excretion of total glutathione per gm of liver at 5 mg/kg, sc administered as single dose after 5 hrs (reference value: 2 +/- 0.79 nmol/min); assay type: organism-based; set-up: dose 5 mg/kg, route subcutaneous; settings: in vivo
# [4] = tested on: Rattus norvegicus; test: Toxicity in Wistar rat assessed as serum ALP activity at 5 mg/kg, sc administered as single dose after 5 hrs (reference value: 256 +/- 10 U/l); assay type: organism-based; set-up: dose 5 mg/kg, route subcutaneous; settings: in vivo
# [5] = tested on: Rattus norvegicus; test: Toxicity in Wistar rat assessed as increase in Mrp3 mRNA level at 5 mg/kg, sc administered as single dose after 5 hrs by qRT-PCR analysis; assay type: organism-based; set-up: dose 5 mg/kg, route subcutaneous; settings: in vivo
# [6] = tested on: Hepatocyte; test: Effect on Mrp2 mRNA level in Wistar rat hepatocytes at 1 to 10 uM after 5 hrs by qRT-PCR analysis; assay type: ADME, cell-based
# [7] = tested on: Hepatocyte; test: Effect on total ER level in Wistar rat hepatocytes nuclear extract at 10 uM after 30 to 120 mins by Western blot analysis; assay type: ADME, cell-based
smiles,measurement,setting,value
C#C[C@]1(O)CC[C@H]2[C@@H]3CCc4cc(O)ccc4[C@H]3CC[C@@]21C [ETHINYL ESTRADIOL],Activity,[1],1.35 µL/min
same,Activity,[2],47 nmol/min
same,Activity,[3],1.8 nmol/min
same,Activity,[4],269 U/L
same,Activity,[5],330%
same,Activity,[6],Not Active
same,Activity,[7],Non-toxic
